Data reported in patent US11000033B2, “Ketone or oxime compound, and herbicide” (NISSAN CHEMICAL CORPORATION, priority 2014, dated 2021).

Key:
Format in all cases: in vivo
[1] = tested on: Echinochloa oryzacola Vasing.; assay: Test Example 2: herbicidal activity, application during weed generation in submerged conditions (symbol A); details: Table 23; application herbicide amount 320 g/ha; grade 0-5 by criteria of Test Example 1
Summary of the method: (§1)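 Paddy pot test, submerged (4 cm water), alluvial soil, mixed sowing; greenhouse 25–30° C. Emulsion formulation diluted to predetermined rate, applied onto floodwater at 1–2 leaf stage. Visual herbicidal rating at 3 wk post-treatment.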

[2] = tested on: Echinochloa crus-galli var. crus-galli; assay: Test Example 3: herbicidal effect by foliage application, Wagner pot (symbol H); details: application herbicide amount 320 g/ha
Summary of the method: (§2)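 Foliar spray of water-diluted emulsion formulation at a predetermined herbicide amount onto 14-day-old plants in flooded alluvial soil (water depth 0.1–0.5 cm), greenhouse 25–30 °C; rice sown alongside. Scored 3 wk post-application on set criteria.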

Lolium multiflorum Lam. = assay: Test Example 4: herbicidal effect by soil treatment (symbol K); details: 320 g/ha
Summary of the method: (§3)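 Seeds were sown in sterilized diluvial soil, covered with about 1.5 cm of soil, and the soil surface was sprayed with a water-diluted emulsion of the compound at a predetermined rate. Plants grew in a greenhouse at 25° C. to 30° C.; effects were scored visually 3 weeks after application.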

Monochoria vaginalis = assay: Test Example 2: herbicidal activity, application during weed generation in submerged conditions (symbol C); details: Table 23; application herbicide amount 320 g/ha; grade 0-5 by criteria of Test Example 1
Summary of the method: as §1

Stellaria media [3] = assay: Test Example 4: herbicidal effect by soil treatment (symbol P); details: 320 g/ha
Summary of the method: as §3

Chenopodium album = assay: Test Example 5: herbicidal effect by foliage application, plastic box (symbol O); details: 320 g/ha, 3 weeks after application
Summary of the method: (§4)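 Emulsion formulation, diluted with water to the intended rate, was applied uniformly to leaves by small sprayer. Recipients were 14-day greenhouse-grown seedlings (25° C. to 30° C.). Assessment followed at 3 weeks.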

Leptochloa chinensis = assay: Test Example 3: herbicidal effect by foliage application, Wagner pot (symbol D); details: application herbicide amount 320 g/ha
Summary of the method: as §2

Avena fatua = assay: Test Example 4: herbicidal effect by soil treatment (symbol I); details: 320 g/ha
Summary of the method: as §3

Digitaria ciliaris = assay: Test Example 4: herbicidal effect by soil treatment (symbol F); details: 320 g/ha
Summary of the method: as §3

Alopecurus myosuroides [4] = assay: Test Example 4: herbicidal effect by soil treatment (symbol J); details: 320 g/ha
Summary of the method: as §3

Scirpus juncoides = assay: Test Example 2: herbicidal activity, application during weed generation in submerged conditions (symbol B); details: Table 23; application herbicide amount 320 g/ha; grade 0-5 by criteria of Test Example 1
Summary of the method: as §1

rice = assay: Test Example 4: effect on crop by soil treatment (symbol b); details: 320 g/ha
Summary of the method: (§5)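 Plants grew in a 25° C. to 30° C. greenhouse after spot-sowing of seeds, including beet, rapeseed, wheat and rice, into sterilized diluvial soil under roughly 1.5 cm of cover soil.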

Setaria viridis = assay: Test Example 4: herbicidal effect by soil treatment (symbol G); details: 320 g/ha
Summary of the method: as §3

rice plant = assay: Test Example 5: effect on crop by foliage application, plastic box (symbol b); details: 320 g/ha, 3 weeks after application
Summary of the method: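 Sterilized diluvial soil, plastic box (21 × 13 × 7 cm); spot sowing, ~1.5 cm soil cover; greenhouse 25–30° C.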

[5] = tested on: Echinochloa crus-galli var. crus-galli; assay: Test Example 5: herbicidal effect by foliage application, plastic box (symbol H); details: 320 g/ha, 3 weeks after application
Summary of the method: as §4

Stellaria media [6] = assay: Test Example 5: herbicidal effect by foliage application, plastic box (symbol P); details: 320 g/ha, 3 weeks after application
Summary of the method: as §4

Veronica persica = assay: Test Example 4: herbicidal effect by soil treatment (symbol R); details: 320 g/ha
Summary of the method: as §3

Amaranthus retroflexus = assay: Test Example 5: herbicidal effect by foliage application, plastic box (symbol N); details: 320 g/ha, 3 weeks after application
Summary of the method: as §4

wheat = assay: Test Example 4: effect on crop by soil treatment (symbol e); details: 320 g/ha
Summary of the method: as §5

Alopecurus myosuroides [7] = assay: Test Example 5: herbicidal effect by foliage application, plastic box (symbol J); details: 320 g/ha, 3 weeks after application
Summary of the method: as §4

CC(CC1CC(O)=C(c2c(C)cc(C)cc2C)C1=O)=NOCCS(C)(=O)=O (centres unmarked) [1-110]
Herbicidal effect grade, A: Echinochloa oryzacola Vasing. [1]: 2 (Herbicidal ratio of 20% or higher and lower than 40%)
herbicidal effect on H (Echinochloa crus-galli var. crus-galli), grade 0-5 [2]: 5 (Herbicidal ratio of 90% or more (almost completely withered))
K: Lolium multiflorum Lam., herbicidal effect grade (Lolium multiflorum Lam.): 5 (Herbicidal ratio of 90% or more (almost completely withered))
Herbicidal effect grade, C: Monochoria vaginalis (Monochoria vaginalis): 0 (Herbicidal ratio of 5% or lower (almost no effect))
P: Stellaria media, herbicidal effect grade (Stellaria media [3]): 0 (Herbicidal ratio of 5% or lower (almost no effect))
O: Chenopodium album, herbicidal effect (criteria 0-5) (Chenopodium album): 2 (Herbicidal ratio of 20% or higher and lower than 40%)
herbicidal effect on D (Leptochloa chinensis), grade 0-5 (Leptochloa chinensis): 5 (Herbicidal ratio of 90% or more (almost completely withered))
I: Avena fatua, herbicidal effect grade (Avena fatua): 4 (Herbicidal ratio of 70% or higher and lower than 90%)
F: Digitaria ciliaris, herbicidal effect grade (Digitaria ciliaris): 5 (Herbicidal ratio of 90% or more (almost completely withered))
J: Alopecurus myosuroides, herbicidal effect grade (Alopecurus myosuroides [4]): 5 (Herbicidal ratio of 90% or more (almost completely withered))
Herbicidal effect grade, B: Scirpus juncoides (Scirpus juncoides): 0 (Herbicidal ratio of 5% or lower (almost no effect))
b: directly sowed rice plant, effect grade on crop (rice): 5 (Herbicidal ratio of 90% or more (almost completely withered))
G: Setaria viridis, herbicidal effect grade (Setaria viridis): 5 (Herbicidal ratio of 90% or more (almost completely withered))
b: directly sowed rice plant, effect on crop (criteria 0-5) (rice plant): 5 (Herbicidal ratio of 90% or more (almost completely withered))
H: Echinochloa crus-galli var. crus-galli, herbicidal effect (criteria 0-5) [5]: 5 (Herbicidal ratio of 90% or more (almost completely withered))
P: Stellaria media, herbicidal effect (criteria 0-5) (Stellaria media [6]): 3 (Herbicidal ratio of 40% or higher and lower than 70%)
R: Veronica persica, herbicidal effect grade (Veronica persica): 0 (Herbicidal ratio of 5% or lower (almost no effect))
N: Amaranthus retroflexus, herbicidal effect (criteria 0-5) (Amaranthus retroflexus): 0 (Herbicidal ratio of 5% or lower (almost no effect))
e: wheat, effect grade on crop (wheat): 5 (Herbicidal ratio of 90% or more (almost completely withered))
J: Alopecurus myosuroides, herbicidal effect (criteria 0-5) (Alopecurus myosuroides [7]): 5 (Herbicidal ratio of 90% or more (almost completely withered))
